Values joined by “and” are separate entries in the source; they are usually repeats but may differ in a detail not shown here. Equal values may be shown once. Read-outs that look alike come from different tables or passages of the source.
Assays:
SERT [1] = assay: Baboon PET imaging: brain uptake, kinetic analysis and SERT parameters; assay type: in vivo; conditions: for Kp: male, baboon, brain, intravenous
Outline: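 Two isoflurane-anaesthetised adult male baboons, each radioligand tested twice (test-retest); i.v. bolus, 91 min 3D emission scan with arterial sampling, MRI-defined regions. Brain uptake as % ID g^−1, with peak time and washout; VT from one-tissue compartment model (K1/k2) using arterial plasma input.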

SERT [2] = target: T1, SERT (Homo sapiens, UniProt P31645); conditions: cited from earlier work
T1 construct: consistent with values previously measured in six healthy humans (Parsey et al., 2000); host or cells: living human brain (PET, values quoted from Parsey et al. 2000, Ginovart et al. 2001)

[3] = humans, cited from earlier work
[4] = BP = VT ROI − VT CER, baboons, mean ± SD of four experiments
[5] = Mean ± SD of four experiments in two baboons
[6] = baboons, mean ± SD of four experiments
[7] = last scan 90 minutes, baboons, mean ± SD of four experiments
[8] = one-tissue compartment model, baboons, mean ± SD of four experiments

T1 sequence (P31645 whole entry): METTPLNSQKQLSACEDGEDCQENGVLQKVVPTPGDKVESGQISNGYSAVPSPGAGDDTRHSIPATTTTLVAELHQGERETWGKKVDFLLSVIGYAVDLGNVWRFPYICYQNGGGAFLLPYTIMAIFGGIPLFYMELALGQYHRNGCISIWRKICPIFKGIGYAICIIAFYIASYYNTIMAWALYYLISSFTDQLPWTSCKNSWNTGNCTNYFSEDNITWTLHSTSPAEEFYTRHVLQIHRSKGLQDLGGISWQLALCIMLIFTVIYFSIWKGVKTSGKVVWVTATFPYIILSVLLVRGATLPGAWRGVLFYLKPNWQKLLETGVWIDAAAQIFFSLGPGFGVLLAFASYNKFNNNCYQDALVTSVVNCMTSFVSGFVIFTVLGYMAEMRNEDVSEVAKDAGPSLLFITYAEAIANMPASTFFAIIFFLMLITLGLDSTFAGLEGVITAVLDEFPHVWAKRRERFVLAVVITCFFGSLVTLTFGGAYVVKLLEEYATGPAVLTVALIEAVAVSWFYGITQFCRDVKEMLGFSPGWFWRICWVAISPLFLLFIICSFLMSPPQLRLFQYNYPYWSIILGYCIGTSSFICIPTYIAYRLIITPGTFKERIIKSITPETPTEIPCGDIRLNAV

## CN(C)Cc1ccccc1Sc1ccc(C#N)cc1N [[^11C]DASB]
SERT [1]; [4]
  Binding potential Cingulate Cortex: 3.8 ± 0.8 mL/g
  Binding potential Hippocampus: 10.0 ± 1.3 mL/g
  Binding potential Midbrain: 29.1 ± 4.0 mL/g
  Binding potential Occipital Cortex: 2.0 ± 1.1 mL/g
  Binding potential Striatum: 14.4 ± 1.5 mL/g
  Binding potential Temporal Cortex: 5.1 ± 1.9 mL/g
  Binding potential Thalamus: 30.2 ± 4.9 mL/g
SERT [1]; Baboon A, single experiment
  Equilibrium specific to non-specific partition coefficient (V3″) Cingulate Cortex: 0.26 and 0.25
  Equilibrium specific to non-specific partition coefficient (V3″) Hippocampus: 0.48 and 0.65
  Equilibrium specific to non-specific partition coefficient (V3″) Midbrain: 1.46 and 1.66
  Equilibrium specific to non-specific partition coefficient (V3″) Occipital Cortex: 0.15 and 0.18
  Equilibrium specific to non-specific partition coefficient (V3″) Striatum: 0.72 and 0.89
  Equilibrium specific to non-specific partition coefficient (V3″) Temporal Cortex: 0.34 and 0.42
  Equilibrium specific to non-specific partition coefficient (V3″) Thalamus: 1.42 and 1.68
SERT [1]; Baboon B, single experiment
  Equilibrium specific to non-specific partition coefficient (V3″) Cingulate Cortex: 0.21 and 0.16
  Equilibrium specific to non-specific partition coefficient (V3″) Hippocampus: 0.62 and 0.54
  Equilibrium specific to non-specific partition coefficient (V3″) Midbrain: 1.64 and 1.96
  Equilibrium specific to non-specific partition coefficient (V3″) Striatum: 0.83 and 0.87
  Equilibrium specific to non-specific partition coefficient (V3″) Temporal Cortex: 0.21
  Equilibrium specific to non-specific partition coefficient (V3″) Thalamus: 1.79 and 2.07
SERT [1]; [5]
  Equilibrium specific to non-specific partition coefficient (V3″) Cingulate Cortex: 0.22 ± 0.04
  Equilibrium specific to non-specific partition coefficient (V3″) Hippocampus: 0.58 ± 0.08
  Equilibrium specific to non-specific partition coefficient (V3″) Midbrain: 1.68 ± 0.21
  Equilibrium specific to non-specific partition coefficient (V3″) Occipital Cortex: 0.11±0.06
  Equilibrium specific to non-specific partition coefficient (V3″) Striatum: 0.83 ± 0.08
  Equilibrium specific to non-specific partition coefficient (V3″) Temporal Cortex: 0.29 ± 0.10
  Equilibrium specific to non-specific partition coefficient (V3″) Thalamus: 1.74 ± 0.27
SERT [1]; baboons
  K1, average of all regions and all animals: 1.21 ± 0.22 mL/g/min
  k2, average of all regions and all animals: 0.047 ± 0.018 min⁻¹
SERT [1]; baboons, combining all regions
  V3″ expressed in percentage of [^11C]McN 5652 V3″: 142±29%
SERT [1]; baboons, mean of all regions
  Mean regional peak uptake time: 19 ± 9 min
  Mean regional wash-out (% decrease between peak time and last scan): 52±19%
SERT [1]; [6]
  Regional uptake peak time Cerebellum: 12 ± 5 min
  Regional uptake peak time Cingulate Cortex: 14 ± 3 min
  Regional uptake peak time Hippocampus: 22 ± 10 min
  Regional uptake peak time Midbrain: 27 ± 13 min
  Regional uptake peak time Occipital Cortex: 16 ± 4 min
  Regional uptake peak time Striatum: 22 ± 10 min
  Regional uptake peak time Temporal Cortex: 19 ± 5 min
  Regional uptake peak time Thalamus: 24 ± 10 min
SERT [1]; baboons, region encompassing the entire brain
  Total brain uptake at 45 min: 0.013±0.002 % ID g^−1
SERT [1]; [7]
  Regional activity wash-out: % decrease from peak to last scan, Cerebellum: 68 ± 14%
  Regional activity wash-out: % decrease from peak to last scan, Cingulate Cortex: 64 ± 10%
  Regional activity wash-out: % decrease from peak to last scan, Hippocampus: 46 ± 19%
  Regional activity wash-out: % decrease from peak to last scan, Midbrain: 32 ± 19%
  Regional activity wash-out: % decrease from peak to last scan, Occipital Cortex: 65 ± 11%
  Regional activity wash-out: % decrease from peak to last scan, Striatum: 49 ± 18%
  Regional activity wash-out: % decrease from peak to last scan, Temporal Cortex: 58 ± 13%
  Regional activity wash-out: % decrease from peak to last scan, Thalamus: 36 ± 16%
SERT [1]; cingulate cortex, one-tissue compartment model, baboons, mean ± SD of four experiments, read-out: VT Cingulate Cortex
  Kp: 21.1 ± 0.9
SERT [1]; hippocampus, one-tissue compartment model, baboons, mean ± SD of four experiments, read-out: VT Hippocampus
  Kp: 27.3 ± 1.4
SERT [1]; midbrain, one-tissue compartment model, baboons, mean ± SD of four experiments, read-out: VT Midbrain
  Kp: 46.4 ± 4.3
SERT [1]; occipital cortex, one-tissue compartment model, baboons, mean ± SD of four experiments, read-out: VT Occipital Cortex
  Kp: 19.3 ± 1.5
SERT [1]; striatum, one-tissue compartment model, baboons, mean ± SD of four experiments, read-out: VT Striatum
  Kp: 31.7 ± 1.7
SERT [1]; temporal cortex, one-tissue compartment model, baboons, mean ± SD of four experiments, read-out: VT Temporal Cortex
  Kp: 22.5 ± 2.1
SERT [1]; thalamus, one-tissue compartment model, baboons, mean ± SD of four experiments, read-out: VT Thalamus
  Kp: 47.5 ± 5
SERT [1]; [8]
  K1 Cerebellum: 1.36 ± 0.24 mL/g/min
  K1 Cingulate Cortex: 1.26 ± 0.09 mL/g/min
  K1 Hippocampus: 0.98 ± 0.20 mL/g/min
  K1 Midbrain: 1.23 ± 0.20 mL/g/min
  K1 Occipital Cortex: 1.15 ± 0.24 mL/g/min
  K1 Striatum: 1.27 ± 0.21 mL/g/min
  K1 Temporal Cortex: 1.05 ± 0.09 mL/g/min
  K1 Thalamus: 1.35 ± 0.29 mL/g/min
  K2 Cerebellum: 0.078 ± 0.013 min⁻¹
  K2 Cingulate Cortex: 0.060 ± 0.004 min⁻¹
  K2 Hippocampus: 0.036 ± 0.006 min⁻¹
  K2 Midbrain: 0.027 ± 0.005 min⁻¹
  K2 Occipital Cortex: 0.059 ± 0.011 min⁻¹
  K2 Striatum: 0.040 ± 0.007 min⁻¹
  K2 Temporal Cortex: 0.047 ± 0.004 min⁻¹
  K2 Thalamus: 0.028 ± 0.006 min⁻¹
  VT Cerebellum (VT CER, nonspecific distribution volume): 17.3 ± 0.5 mL/g
SERT [2]; humans (Ginovart et al., 2001)
  Data acquisition required to derive stable VT values in all regions: no more than 80 minutes
SERT [2]; humans, literature
  V3″ occipital cortex: 0.51±0.09
  VT CER (cerebellum distribution volume): 11.8 ± 1.5 mL/g
[3]; literature
  Parent fraction in plasma at 30 minutes: 40±7%
[3]; n=5 (Ginovart et al., 2001)
  f1 (plasma free fraction): 11.0±1.2%

Source: patent US20110097274A1, “Carbon-11 and fluorine-18 labeled radioligands for positron emission tomography (PET) imaging for the brain serotonin transporters” (priority 2002, published 2011)
